Source: PubChem BioAssay (NCI)
Converted amounts (≈) assume the structure as drawn. “And” between values parts separate entries of the source, which are not always exact repeats. Equal entries are not always repeated.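 Exposure lasted 48 hours, with cells grown in 96-well plates and compounds tested at five concentrations. At the GI50, growth is halved. TGI is the concentration that stops growth completely.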 The source made the active and inactive calls. No stated cut-off is given here; in the data, active means GI50 below about 0.43 µM; inactive means the rest.

Legend:
Experiment in all cases: NCI-60 cell line screen, 48 h
HL-60(TB) leukemia = tested on: HL-60(TB) leukemia
K-562 leukemia = tested on: K-562 leukemia
DLD-1 colon = tested on: DLD-1 colon
MOLT-4 leukemia = tested on: MOLT-4 leukemia
CCRF-CEM leukemia = tested on: CCRF-CEM leukemia
SNB-78 CNS = tested on: SNB-78 CNS
KM20L2 colon = tested on: KM20L2 colon
SK-MEL-2 melanoma = tested on: SK-MEL-2 melanoma
HCT-15 colon = tested on: HCT-15 colon

Compound | TGI (HL-60(TB) leukemia) | TGI (K-562 leukemia) | TGI (DLD-1 colon) [µM] | TGI (MOLT-4 leukemia) | TGI (CCRF-CEM leukemia) | TGI (SNB-78 CNS) | TGI (KM20L2 colon) [µM] | TGI (SK-MEL-2 melanoma) | TGI (HCT-15 colon) [µM] | GI50 (HL-60(TB) leukemia) [µg/mL] | GI50 (DLD-1 colon) [µg/mL] | GI50 (MOLT-4 leukemia) [µg/mL] | GI50 (CCRF-CEM leukemia) [µg/mL] | GI50 (SNB-78 CNS) | outcome (KM20L2 colon) | GI50 (SK-MEL-2 melanoma) [µg/mL] | GI50 (HCT-15 colon) [µM] | GI50 (KM20L2 colon) [µM]
COC(=O)C1=C(C)N(NC(N)=O)C2(N)N(NC(N)=O)C(C)=C(C(=O)OC)C12C(=O)OC (stereo not drawn) | > 100 µM | > 100 µM | > 100 | > 100 µM | > 100 µM | > 100 µM | > 100 | > 100 µM | > 100 | – | – | – | – | – | – | – | – | –
O=C(/C=C/c1ccc(OCC(=O)N2CCN(c3ccccc3)CC2)cc1)c1ccc(Cl)cc1 | > 100 µM | > 100 µM | > 100 | > 100 µM | > 100 µM | 82.8 µM | > 100 | 98.3 µM | > 100 | – | – | – | – | – | – | – | – | –
CCCN(CCCCC(NC(C)=O)C(=O)NCc1ccccc1)C(=O)NCCCl (stereo not drawn) | > 100 µM | > 100 µM | > 100 | > 100 µM | > 100 µM | – | > 100 | – | > 100 | – | – | – | – | – | – | – | – | –
CC(C)C(=O)/C=C/c1ccccc1 | > 100 µM | > 100 µM | > 100 | > 100 µM | 67.5 µM | > 100 µM | > 100 | > 100 µM | – | – | – | – | – | – | – | – | – | –
COc1c(O)c2c(c3cc(C(=O)N4CCc5c4c(O)c(OC)c4[nH]c(C(=O)N6CC7CC78C6=CC(=O)c6[nH]cc(C)c68)cc54)[nH]c13)CCN2C(N)=O (stereo not drawn) | 0.0439 µg/mL | 21.8 µM and 0.0594 µg/mL | – | 456 nM and 0.0737 µg/mL | 963 nM and 0.0344 µg/mL | 0.0534 µg/mL | 0.0181 | 0.0349 µg/mL | – | 0.007 (≈ 9.95 nM) | 0.00341 (≈ 4.85 nM) | 0.00642 (≈ 9.12 nM) | 0.00439 (≈ 6.24 nM) | 0.0117 µg/mL | inactive | 0.0187 (≈ 26.6 nM) | 0.157 | –
O=C1NC(=S)NC(=O)C1=Cc1cc2c(cc1[N+](=O)[O-])OCO2 | > 100 µM | > 100 µM | > 100 | > 100 µM | > 100 µM | > 100 µM | > 100 | > 100 µM | > 100 | – | – | – | – | – | – | – | – | –
Cc1ccccc1-c1c(N)nc(NC#N)nc1C(=O)Nc1ccccc1 | – | > 100 µM | > 100 | > 100 µM | > 100 µM | > 100 µM | > 100 | > 100 µM | > 100 | – | – | – | – | – | – | – | – | –
CC(C)N(C(=O)C12C3C4C5(C#N)C3C1(I)C5C42I)C(C)C (stereo not drawn) | > 63.6 µM | > 93.3 µM | > 100 | > 100 µM | > 61.8 µM | > 100 µM | > 100 | > 100 µM | > 57.7 | – | – | – | – | – | – | – | – | –
C=C1[C@@H](C)[C@H]2[C@H](Cc3ccccc3)NC(=O)[C@]23OC(=O)/C=C/[C@H](O)CCC[C@@H](C)C/C=C/[C@H]3[C@@H]1O | 90 µM | > 100 µM | > 100 | 72.3 µM | 57.4 µM | 15.2 µM | > 100 | 89.1 µM | 93.2 | – | – | – | – | – | – | – | – | –
COC(=O)C1CC(C(=O)OC)c2nc3cc(C)ccc3nc21 (stereo not drawn) | > 100 µM | > 100 µM | > 100 | > 100 µM | > 100 µM | > 100 µM | > 100 | > 100 µM | > 100 | – | – | – | – | – | – | – | – | –
CCOc1ccc(N=Cc2cccc3cccnc23)cc1 | 62.2 µM | 82.3 µM | > 100 | > 100 µM | > 100 µM | > 100 µM | > 100 | > 100 µM | > 100 | – | – | – | – | – | – | – | – | –
COC(=O)C(CCS(=O)(=O)CC(=O)C(=O)Nc1cccc(C(C)=O)c1)C(=O)OC | > 100 µM | > 100 µM | > 100 | > 100 µM | > 65.5 µM | > 100 µM | > 100 | > 100 µM | > 100 | – | – | – | – | – | – | – | – | –
CC(=O)Nc1ccc(C(=O)N2N=C(C)/C(=C/c3ccccc3O)C2=O)cc1 | > 100 µM | > 100 µM | > 100 | > 100 µM | > 100 µM | > 100 µM | – | > 100 µM | > 100 | – | – | – | – | – | – | – | – | –
O=C(O)CNc1c2ccccc2nc2ccccc12 | > 100 µM | > 100 µM | > 100 | > 100 µM | > 100 µM | – | > 100 | > 100 µM | > 100 | – | – | – | – | – | – | – | – | –
N#CC(NNC(=O)c1ccccc1O)c1ccc(O)cc1 (stereo not drawn) | 74.9 µM | > 100 µM | – | > 100 µM | > 100 µM | – | > 100 | 78.5 µM | > 100 | – | – | – | – | – | – | – | – | –
COc1ccc2[nH]c(-c3ccccn3)cc(=O)c2c1 | > 100 µM | > 100 µM | > 100 | > 100 µM | > 100 µM | > 100 µM | > 100 | – | – | – | – | – | – | – | – | – | – | 35.1
O=C1c2cccc3cc([N+](=O)[O-])cc(c23)C(=O)N1CCNCCNCCNCCN1C(=O)c2cccc3cc([N+](=O)[O-])cc(c23)C1=O | – | 0.229 µM | 0.272 | 1.13 µM | 0.635 µM | 0.399 µM and 0.686 µM | 0.576 | 0.283 µM | 1.08 | – | – | – | – | 0.0474 µM | – | – | – | –
CCN1C2=NC(=O)N(C)C(=O)C2(Cl)C(C(SC)S(=O)(=O)c2ccc(C)cc2)c2ccccc21 (stereo not drawn) | 19.7 µM | 55.1 µM | > 100 | 13.3 µM | 25.7 µM | 58.3 µM | > 100 | > 100 µM | – | – | – | – | – | – | – | – | – | –
